Data as given in patent US20260132103A1, “Bumetanide Derivatives for the Therapy of Stroke and Other Neurological Diseases/Disorders Involving NKCCs” (University of Pittsburgh - Of the Commonwealth System of …, priority 2018, published 2026).

Columns and labels:
[1] = test system: GL26 and SB28-GFP cells; experiment: Rubidium uptake assay (Rb+ influx); type: cell-based, mouse
Protocol: FIGS. 4A-4B: Rb^+ influx was measured in GL26 and SB28-GFP cells in either isotonic (10 min) or hypertonic (5 min) solutions using ICR 8000 machine. (4A) Cells were exposed to isotonic or hypertonic solutions with BMT (10 μM) or STS66 (10 μM). (4B) Cells were exposed to isotonic or hypertonic solutions with different concentrations of STS66 (0 to 40 μM). Results are expressed as means±SEM from four independent experiments. **P<0.01, ***P<0.001, ****P<0.0001.
FIG. 5: GL26 cells and SB28-GFP cells were first exposed to BMT (10 μM) and different concentration of STS66 (10, 20 and 40 μM) for 48 h, and Rb^+ influx was measured in either isotonic (10 min) or hypertonic (5 min) solutions using ICR 8000 machine. Results are expressed as means±SEM from four independent experiments. *P<0.05, **P<0.01, ***P<0.001, ****P<0.0001.
GL26 and SB28-GFP cells were seeded in 24-well plates and the rubidium uptake assay was performed on cells that were 60% confluent. TMZ was added to cells for 48 hr incubation. The medium was then removed from the wells and washed with wash buffer (Rb^+ free). After wash buffer was aspirated, isotonic and hypertonic solutions (contain Rb^+) with BMT were added, and cells were incubated at 37° C. for 5 min. […] The Rb^+ concentration was measured using an automated atomic absorption spectrophotometer (Ion Channel Reader, ICR-8000; Aurora Biomed, Vancouver, Canada).

[2] = biological target: T1, pNKCC1 and tNKCC1 proteins (Mus musculus, UniProt P55012); experiment: Immunoblotting of pNKCC1 and tNKCC1; type: cell-based; details: GL26 and SB28-GFP cells, 6 h; BMT 10 μM, STS66 10 μM, TMZ 100 μM or combined
T1 construct: cell lysates were harvested for immunoblotting of pNKCC1 and tNKCC1 proteins; endogenous in cells; host or cells: GL26 and SB28-GFP mouse glioma cells
T1 sequence (P55012 1-1205): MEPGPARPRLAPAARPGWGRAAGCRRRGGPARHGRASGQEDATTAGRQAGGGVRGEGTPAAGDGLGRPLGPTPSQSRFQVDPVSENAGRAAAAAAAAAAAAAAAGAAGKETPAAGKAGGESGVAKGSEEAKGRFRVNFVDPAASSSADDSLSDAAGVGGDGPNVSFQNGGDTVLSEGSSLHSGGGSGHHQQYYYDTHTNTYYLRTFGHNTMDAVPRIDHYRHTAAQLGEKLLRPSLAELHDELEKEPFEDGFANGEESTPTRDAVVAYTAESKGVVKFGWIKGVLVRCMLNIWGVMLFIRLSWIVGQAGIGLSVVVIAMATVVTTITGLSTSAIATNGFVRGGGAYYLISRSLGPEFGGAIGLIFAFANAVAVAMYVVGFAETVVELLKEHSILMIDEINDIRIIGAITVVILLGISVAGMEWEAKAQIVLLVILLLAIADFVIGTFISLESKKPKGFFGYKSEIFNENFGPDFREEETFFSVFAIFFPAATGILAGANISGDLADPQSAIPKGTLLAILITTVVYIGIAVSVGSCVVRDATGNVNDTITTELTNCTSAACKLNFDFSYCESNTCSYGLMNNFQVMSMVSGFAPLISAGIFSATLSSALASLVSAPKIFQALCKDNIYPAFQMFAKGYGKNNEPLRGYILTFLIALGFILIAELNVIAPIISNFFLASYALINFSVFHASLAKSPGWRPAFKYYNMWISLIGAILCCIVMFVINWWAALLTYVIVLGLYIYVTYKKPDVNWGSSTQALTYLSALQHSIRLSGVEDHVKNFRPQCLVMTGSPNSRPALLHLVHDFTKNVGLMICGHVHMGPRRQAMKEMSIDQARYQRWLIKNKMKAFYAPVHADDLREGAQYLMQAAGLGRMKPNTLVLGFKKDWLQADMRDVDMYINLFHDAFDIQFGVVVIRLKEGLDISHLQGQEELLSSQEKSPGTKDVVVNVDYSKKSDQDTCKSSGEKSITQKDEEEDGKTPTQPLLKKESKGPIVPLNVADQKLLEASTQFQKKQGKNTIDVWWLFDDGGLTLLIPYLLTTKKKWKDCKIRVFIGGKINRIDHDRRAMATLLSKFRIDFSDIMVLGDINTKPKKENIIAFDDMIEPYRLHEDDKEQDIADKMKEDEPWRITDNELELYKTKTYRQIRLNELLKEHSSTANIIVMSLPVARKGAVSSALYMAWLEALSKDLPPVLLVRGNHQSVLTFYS
Protocol: FIGS. 6A-6B: GL26 and SB28-GFP cells were exposed to BMT (10 μM), STS66 (10 μM), TMZ (100 μM) or combined for 6 h and cell lysates were harvested for immunoblotting of pNKCC1 and tNKCC1 proteins. Data are means±SEM from six independent experiments. *P<0.05, **P<0.01, ***P<0.001.
GL26 and SB28-GFP cells were washed with ice-cold PBS and incubated in RIPA buffer containing 1 pill of phosSTOP and 2 mM protease inhibitors as described before (Algharabli et al. 2012). Cells were lysed by sonication at 4° C. Protein content of the cellular lysate was determined with BCA Protein Assay Kit. Samples and sample buffer (Thermo Scientific, Rockford, IL, USA) were boiled at 95° C. for 5 min. The samples were then electrophoretically separated on 10% SDS gels. After transferring to PVDF membranes, the blots were blocked in 10% nonfat dry milk in TBS-T (Tris-buffered saline, 0.05% Tween-20) for 1 hour at room temperature and then incubated with appropriate primary antibodies (pNKCC1, 1:300 and tNKCC1, 1:3000) at 4° C. overnight. After rinsing with TBS-T, the blots were incubated with horseradish peroxidase-conjugated secondary IgG (1:2000) for 1 hr at RT. Bound antibody was visualized with an enhanced chemiluminescence assay. Protein band signal intensities were analyzed using ImageJ and normalized to α-tubulin expression.

CCCCNc1cc(CNCC(F)(F)F)cc(S(N)(=O)=O)c1Oc1ccccc1 [STS66, 3-(Butylamino)-2-phenoxy-5-[(2,2,2-trifluoroethylamino)methyl]benzenesulfonamide]
Rb+ influx inhibition, 48 h incubation ([1]; drugs incubated for 48 h, BMT 10 μM, STS66 10, 20 and 40 μM): inhibited the Rb^+ influx better than BMT | Rb+ influx inhibition, short incubation ([1]; drugs incubated for short time: isotonic (10 min) or hypertonic (5 min) solutions, STS66 0 to 40 μM): does not inhibit Rb^+ influx | pNKCC1 and tNKCC1 expression [2]: did not show significant decrease
